Test: xn = mol fraction of the nth substance listed
Settings: 100 kPa, Liquid; for electrical conductivity: Alternating current cell with electrodes; for mass density: Vibrating tube method; for viscosity: Capillary tube (Ostwald / Ubbelohde) method

CCCC[N+]1(C)CCCC1.N#CN=C=[N-] [1-butyl-1-methylpyrrolidinium dicyanamide] + O=C1CCCO1
Settings	electrical conductivity [S/m]
273.15 K, Frequency=0.00892857 MHz, x1 = 0.9013	0.563
273.15 K, Frequency=0.00892857 MHz, x1 = 1	0.523
273.15 K, Frequency=0.00961538 MHz, x1 = 0.0463	0.978
273.15 K, Frequency=0.00961538 MHz, x1 = 0.0987	1.43
273.15 K, Frequency=0.00961538 MHz, x1 = 0.1449	1.57
273.15 K, Frequency=0.00961538 MHz, x1 = 0.1859	1.635
273.15 K, Frequency=0.00961538 MHz, x1 = 0.2493	1.517
273.15 K, Frequency=0.00961538 MHz, x1 = 0.3029	1.42
273.15 K, Frequency=0.00961538 MHz, x1 = 0.3845	1.25
273.15 K, Frequency=0.00961538 MHz, x1 = 0.4985	1.03
273.15 K, Frequency=0.00961538 MHz, x1 = 0.6954	0.742
273.15 K, Frequency=0.00961538 MHz, x1 = 0.9013	0.563
273.15 K, Frequency=0.00961538 MHz, x1 = 1	0.523
273.15 K, Frequency=0.01 MHz, x1 = 0.0463	0.978
273.15 K, Frequency=0.01 MHz, x1 = 0.0987	1.43
273.15 K, Frequency=0.01 MHz, x1 = 0.1449	1.57
273.15 K, Frequency=0.01 MHz, x1 = 0.1859	1.635
273.15 K, Frequency=0.01 MHz, x1 = 0.2493	1.517
273.15 K, Frequency=0.01 MHz, x1 = 0.3029	1.42
273.15 K, Frequency=0.01 MHz, x1 = 0.3845	1.25
273.15 K, Frequency=0.01 MHz, x1 = 0.4985	1.03
273.15 K, Frequency=0.01 MHz, x1 = 0.6954	0.742
273.15 K, Frequency=0.01 MHz, x1 = 0.9013	0.563
273.15 K, Frequency=0.01 MHz, x1 = 1	0.523
283.15 K, Frequency=0.0005 MHz, x1 = 0.0463	1.16
283.15 K, Frequency=0.0005 MHz, x1 = 0.0987	1.73
283.15 K, Frequency=0.0005 MHz, x1 = 0.1449	1.92
283.15 K, Frequency=0.0005 MHz, x1 = 0.1859	2.018
283.15 K, Frequency=0.0005 MHz, x1 = 0.2493	1.921
283.15 K, Frequency=0.0005 MHz, x1 = 0.3029	1.84
283.15 K, Frequency=0.0005 MHz, x1 = 0.3845	1.65
283.15 K, Frequency=0.0005 MHz, x1 = 0.4985	1.407
283.15 K, Frequency=0.0005 MHz, x1 = 0.6954	1.07
283.15 K, Frequency=0.0005 MHz, x1 = 0.9013	0.849
283.15 K, Frequency=0.0005 MHz, x1 = 1	0.786
283.15 K, Frequency=0.001 MHz, x1 = 0.0463	1.16
283.15 K, Frequency=0.001 MHz, x1 = 0.0987	1.73
283.15 K, Frequency=0.001 MHz, x1 = 0.1449	1.92
283.15 K, Frequency=0.001 MHz, x1 = 0.1859	2.027
283.15 K, Frequency=0.001 MHz, x1 = 0.2493	1.923
283.15 K, Frequency=0.001 MHz, x1 = 0.3029	1.84
283.15 K, Frequency=0.001 MHz, x1 = 0.3845	1.65
283.15 K, Frequency=0.001 MHz, x1 = 0.4985	1.407
283.15 K, Frequency=0.001 MHz, x1 = 0.6954	1.07
283.15 K, Frequency=0.001 MHz, x1 = 0.9013	0.849
283.15 K, Frequency=0.001 MHz, x1 = 1	0.786
283.15 K, Frequency=0.0015 MHz, x1 = 0.0463	1.17
283.15 K, Frequency=0.0015 MHz, x1 = 0.0987	1.73
283.15 K, Frequency=0.0015 MHz, x1 = 0.1449	1.92
283.15 K, Frequency=0.0015 MHz, x1 = 0.1859	2.027
283.15 K, Frequency=0.0015 MHz, x1 = 0.2493	1.924
283.15 K, Frequency=0.0015 MHz, x1 = 0.3029	1.84
283.15 K, Frequency=0.0015 MHz, x1 = 0.3845	1.66
283.15 K, Frequency=0.0015 MHz, x1 = 0.4985	1.407
283.15 K, Frequency=0.0015 MHz, x1 = 0.6954	1.07
283.15 K, Frequency=0.0015 MHz, x1 = 0.9013	0.849
283.15 K, Frequency=0.0015 MHz, x1 = 1	0.786
283.15 K, Frequency=0.002 MHz, x1 = 0.0463	1.17
283.15 K, Frequency=0.002 MHz, x1 = 0.0987	1.73
283.15 K, Frequency=0.002 MHz, x1 = 0.1449	1.92
283.15 K, Frequency=0.002 MHz, x1 = 0.1859	2.027
283.15 K, Frequency=0.002 MHz, x1 = 0.2493	1.925
283.15 K, Frequency=0.002 MHz, x1 = 0.3029	1.84
283.15 K, Frequency=0.002 MHz, x1 = 0.3845	1.66
283.15 K, Frequency=0.002 MHz, x1 = 0.4985	1.407
283.15 K, Frequency=0.002 MHz, x1 = 0.6954	1.07
283.15 K, Frequency=0.002 MHz, x1 = 0.9013	0.849
283.15 K, Frequency=0.002 MHz, x1 = 1	0.786
283.15 K, Frequency=0.0025 MHz, x1 = 0.0463	1.17
283.15 K, Frequency=0.0025 MHz, x1 = 0.0987	1.73
283.15 K, Frequency=0.0025 MHz, x1 = 0.1449	1.93
283.15 K, Frequency=0.0025 MHz, x1 = 0.1859	2.028
283.15 K, Frequency=0.0025 MHz, x1 = 0.2493	1.925
283.15 K, Frequency=0.0025 MHz, x1 = 0.3029	1.84
283.15 K, Frequency=0.0025 MHz, x1 = 0.3845	1.66
283.15 K, Frequency=0.0025 MHz, x1 = 0.4985	1.407
283.15 K, Frequency=0.0025 MHz, x1 = 0.6954	1.07
283.15 K, Frequency=0.0025 MHz, x1 = 0.9013	0.849
283.15 K, Frequency=0.0025 MHz, x1 = 1	0.786
283.15 K, Frequency=0.003 MHz, x1 = 0.0463	1.17
283.15 K, Frequency=0.003 MHz, x1 = 0.0987	1.73
283.15 K, Frequency=0.003 MHz, x1 = 0.1449	1.93

Settings	electrical conductivity, 283.15 K [S/m]	mass density, 273.15 K [kg/m3]	viscosity, 283.15 K [mPa·s]
x1 = 0.0463	1.17	–	–
x1 = 0.0987	1.73	1124.75	3.75
x1 = 0.1449	1.93	–	–
x1 = 0.1859	2.028	1107.12	5.58
x1 = 0.2493	1.926	–	–
x1 = 0.3029	1.84	1087.92	8.99
x1 = 0.3845	1.66	–	–
x1 = 0.4985	1.407	1063.96	17.71
x1 = 0.6954	1.07	1046.52	30.79
x1 = 0.9013	0.849	1032.97	49.24
x1 = 1	0.786	1027.69	59.6

— the NIST ThermoML archive (doi:10.1016/j.jct.2015.08.014)
